{"source": "patent EP3689885B1", "about": "“HIGHLY EFFECTIVE CONCENTRATES WITH PPDA AND THEIR USE IN STABILIZING MATERIALS IN ANIMAL EXCREMENTS” (SKW STICKSTOFFWERKE PIESTERITZ GmbH, priority 2019, dated 2020)", "key": {"[1]": {"assay": "Maximum solubility of PPDA in solvents / solvent mixtures", "format": "physicochemical", "source_text": "(§1) PPDA wurde bis zur maximalen Löslichkeit in die Lösungsmittel/ Lösungsmittelgemische eingebracht, die Lösungen wurden bei Raumtemperatur gelagert und der Wirkstoffgehalt (PPDA) nach 48 Wochen mittels HPLC überprüft."}, "[2]": {"assay": "Stability of the active ingredient (PPDA) in the solution, HPLC", "format": "physicochemical", "settings": "room temperature, 483840 min", "source_text": "as §1"}, "[3]": {"tested_on": "Urease", "settings": "literature (Wenzel et al. 1983; Leinker 2007, laboratory screening); cited from earlier work"}}, "note": "Entries after “also recorded” stand apart in the source; their conditions may differ.", "data": [{"smiles": "NP(N)(=O)Oc1ccccc1", "note": "[PPDA, Phenylphosphorsäurediamid]", "values": [{"measurement": "Löslichkeit", "setting": "[1]; DMSO/Diethylenglycolmonomethylether, Anteil LM 1 20 %, room temperature", "result": "3,0%"}, {"measurement": "Löslichkeit", "setting": "[1]; DMSO/Diethylenglycolmonomethylether, Anteil LM 1 40 %, room temperature", "result": "4,4%"}, {"measurement": "Löslichkeit", "setting": "[1]; DMSO/Diethylenglycolmonomethylether, Anteil LM 1 60 %, room temperature", "result": "7,8%"}, {"measurement": "Löslichkeit", "setting": "[1]; DMSO/Diethylenglycolmonomethylether, Anteil LM 1 80 %, room temperature", "result": "11,5%"}, {"measurement": "Löslichkeit", "setting": "[1]; DMSO/Glycerinformal, Anteil LM 1 20 %, room temperature", "result": "4,1%"}, {"measurement": "Löslichkeit", "setting": "[1]; DMSO/Glycerinformal, Anteil LM 1 40 %, room temperature", "result": "4,9%"}, {"measurement": "Löslichkeit", "setting": "[1]; DMSO/Glycerinformal, Anteil LM 1 60 %, room temperature", "result": "6,7%"}, {"measurement": "Löslichkeit", "setting": "[1]; DMSO/Glycerinformal, Anteil LM 1 80 %, room temperature", "result": "10,3%"}, {"measurement": "Löslichkeit", "setting": "[1]; DMSO/Propylenglycolmonomethyl ether, Anteil LM 1 20 %, room temperature", "result": "2,2%"}, {"measurement": "Löslichkeit", "setting": "[1]; DMSO/Propylenglycolmonomethyl ether, Anteil LM 1 40 %, room temperature", "result": "3,5%"}, {"measurement": "Löslichkeit", "setting": "[1]; DMSO/Propylenglycolmonomethyl ether, Anteil LM 1 60 %, room temperature", "result": "6,2%"}, {"measurement": "Löslichkeit", "setting": "[1]; DMSO/Propylenglycolmonomethyl ether, Anteil LM 1 80 %, room temperature", "result": "10,7%"}, {"measurement": "Löslichkeit", "setting": "[1]; DMSO/Pyrrolidon, Anteil LM 1 20 %, room temperature", "result": "6,0%"}, {"measurement": "Löslichkeit", "setting": "[1]; DMSO/Pyrrolidon, Anteil LM 1 40 %, room temperature", "result": "8,4%"}, {"measurement": "Löslichkeit", "setting": "[1]; DMSO/Pyrrolidon, Anteil LM 1 60 %, room temperature", "result": "9,9%"}, {"measurement": "Löslichkeit", "setting": "[1]; DMSO/Pyrrolidon, Anteil LM 1 80 %, room temperature", "result": "12,0%"}, {"measurement": "Löslichkeit", "setting": "[1]; DMSO, room temperature", "result": "11,5%"}, {"measurement": "Löslichkeit", "setting": "[1]; Diethylenenglycolmonomethylether / Glycerinformal, Anteil LM 1 20 %, room temperature", "result": "3,9%"}, {"measurement": "Löslichkeit", "setting": "[1]; Diethylenenglycolmonomethylether / Glycerinformal, Anteil LM 1 40 %, room temperature", "result": "3,3%"}, {"measurement": "Löslichkeit", "setting": "[1]; Diethylenenglycolmonomethylether / Glycerinformal, Anteil LM 1 60 %, room temperature", "result": "3,1%"}, {"measurement": "Löslichkeit", "setting": "[1]; Diethylenenglycolmonomethylether / Glycerinformal, Anteil LM 1 80 %, room temperature", "result": "2,6%"}, {"measurement": "Löslichkeit", "setting": "[1]; Propylenglycol monomethylether / Glycerinformal, Anteil LM 1 20 %, room temperature", "result": "2,8%"}, {"measurement": "Löslichkeit", "setting": "[1]; Propylenglycol monomethylether / Glycerinformal, Anteil LM 1 40 %, room temperature", "result": "2,7%"}, {"measurement": "Löslichkeit", "setting": "[1]; Propylenglycol monomethylether / Glycerinformal, Anteil LM 1 60 %, room temperature", "result": "2,2%"}, {"measurement": "Löslichkeit", "setting": "[1]; Propylenglycol monomethylether / Glycerinformal, Anteil LM 1 80 %, room temperature", "result": "1,5%"}, {"measurement": "Löslichkeit", "setting": "[1]; Propylenglycol monomethylether / Pyrrolidon, Anteil LM 1 40 %, room temperature", "result": "3,7%"}, {"measurement": "Löslichkeit", "setting": "[1]; Propylenglycol monomethylether / Pyrrolidon, Anteil LM 1 60 %, room temperature", "result": "2,9%"}, {"measurement": "Löslichkeit", "setting": "[1]; Propylenglycol monomethylether / Pyrrolidon, Anteil LM 1 80 %, room temperature", "result": "1,1%"}, {"measurement": "Löslichkeit", "setting": "[1]; Pyrrolidon / Glycerinformal, Anteil LM 1 20 %, room temperature", "result": "4,3%"}, {"measurement": "Löslichkeit", "setting": "[1]; Tetraethylenglycol / Pyrrolidon, Anteil LM 1 40 %, room temperature", "result": "5,5%"}, {"measurement": "Löslichkeit", "setting": "[1]; Tetraethylenglycol / Pyrrolidon, Anteil LM 1 60 %, room temperature", "result": "3,6%"}, {"measurement": "Löslichkeit", "setting": "[1]; in most solvents generally known as good solvents for phosphoric acid amides (not named)", "result": "< 1", "unit": "%"}, {"measurement": "Wirkstoffwiederfindung nach 48 Wochen", "setting": "[2]; saturated solution in DMSO", "result": 81, "unit": "%"}, {"measurement": "Wirkstoffwiederfindung nach 48 Wochen", "setting": "[2]; saturated solution in DMSO/Diethylenglycolmonomethylether, Anteil LM 1 20 %", "result": 83, "unit": "%"}, {"measurement": "Wirkstoffwiederfindung nach 48 Wochen", "setting": "[2]; saturated solution in DMSO/Diethylenglycolmonomethylether, Anteil LM 1 40 %", "result": 85, "unit": "%"}, {"measurement": "Wirkstoffwiederfindung nach 48 Wochen", "setting": "[2]; saturated solution in DMSO/Diethylenglycolmonomethylether, Anteil LM 1 60 %", "result": 93, "unit": "%"}, {"measurement": "Wirkstoffwiederfindung nach 48 Wochen", "setting": "[2]; saturated solution in DMSO/Diethylenglycolmonomethylether, Anteil LM 1 80 %", "result": 80, "unit": "%"}, {"measurement": "Wirkstoffwiederfindung nach 48 Wochen", "setting": "[2]; saturated solution in DMSO/Glycerinformal, Anteil LM 1 20 %", "result": 82, "unit": "%"}, {"measurement": "Wirkstoffwiederfindung nach 48 Wochen", "setting": "[2]; saturated solution in DMSO/Glycerinformal, Anteil LM 1 40 %", "result": 91, "unit": "%"}, {"measurement": "Wirkstoffwiederfindung nach 48 Wochen", "setting": "[2]; saturated solution in DMSO/Glycerinformal, Anteil LM 1 60 %", "result": 92, "unit": "%"}, {"measurement": "Wirkstoffwiederfindung nach 48 Wochen", "setting": "[2]; saturated solution in DMSO/Glycerinformal, Anteil LM 1 80 %", "result": 86, "unit": "%"}, {"measurement": "Wirkstoffwiederfindung nach 48 Wochen", "setting": "[2]; saturated solution in DMSO/Propylenglycolmonomethyl ether, Anteil LM 1 20 %", "result": 100, "unit": "%"}, {"measurement": "Wirkstoffwiederfindung nach 48 Wochen", "setting": "[2]; saturated solution in DMSO/Propylenglycolmonomethyl ether, Anteil LM 1 40 %", "result": 100, "unit": "%"}, {"measurement": "Wirkstoffwiederfindung nach 48 Wochen", "setting": "[2]; saturated solution in DMSO/Propylenglycolmonomethyl ether, Anteil LM 1 60 %", "result": 95, "unit": "%"}, {"measurement": "Wirkstoffwiederfindung nach 48 Wochen", "setting": "[2]; saturated solution in DMSO/Propylenglycolmonomethyl ether, Anteil LM 1 80 %", "result": 89, "unit": "%"}, {"measurement": "Wirkstoffwiederfindung nach 48 Wochen", "setting": "[2]; saturated solution in DMSO/Pyrrolidon, Anteil LM 1 20 %", "result": 79, "unit": "%"}, {"measurement": "Wirkstoffwiederfindung nach 48 Wochen", "setting": "[2]; saturated solution in DMSO/Pyrrolidon, Anteil LM 1 40 %", "result": 88, "unit": "%"}, {"measurement": "Wirkstoffwiederfindung nach 48 Wochen", "setting": "[2]; saturated solution in DMSO/Pyrrolidon, Anteil LM 1 60 %", "result": 93, "unit": "%"}, {"measurement": "Wirkstoffwiederfindung nach 48 Wochen", "setting": "[2]; saturated solution in DMSO/Pyrrolidon, Anteil LM 1 80 %", "result": 92, "unit": "%"}, {"measurement": "Wirkstoffwiederfindung nach 48 Wochen", "setting": "[2]; saturated solution in Diethylenenglycolmonomethylether / Glycerinformal, Anteil LM 1 20 %", "result": 85, "unit": "%"}, {"measurement": "Wirkstoffwiederfindung nach 48 Wochen", "setting": "[2]; saturated solution in Diethylenenglycolmonomethylether / Glycerinformal, Anteil LM 1 40 %", "result": 89, "unit": "%"}, {"measurement": "Wirkstoffwiederfindung nach 48 Wochen", "setting": "[2]; saturated solution in Diethylenenglycolmonomethylether / Glycerinformal, Anteil LM 1 60 %", "result": 72, "unit": "%"}, {"measurement": "Wirkstoffwiederfindung nach 48 Wochen", "setting": "[2]; saturated solution in Diethylenenglycolmonomethylether / Glycerinformal, Anteil LM 1 80 %", "result": 73, "unit": "%"}, {"measurement": "Wirkstoffwiederfindung nach 48 Wochen", "setting": "[2]; saturated solution in Propylenglycol monomethylether / Glycerinformal, Anteil LM 1 20 %", "result": 93, "unit": "%"}, {"measurement": "Wirkstoffwiederfindung nach 48 Wochen", "setting": "[2]; saturated solution in Propylenglycol monomethylether / Glycerinformal, Anteil LM 1 40 %", "result": 100, "unit": "%"}, {"measurement": "Wirkstoffwiederfindung nach 48 Wochen", "setting": "[2]; saturated solution in Propylenglycol monomethylether / Glycerinformal, Anteil LM 1 60 %", "result": 100, "unit": "%"}, {"measurement": "Wirkstoffwiederfindung nach 48 Wochen", "setting": "[2]; saturated solution in Propylenglycol monomethylether / Glycerinformal, Anteil LM 1 80 %", "result": 100, "unit": "%"}, {"measurement": "Wirkstoffwiederfindung nach 48 Wochen", "setting": "[2]; saturated solution in Propylenglycol monomethylether / Pyrrolidon, Anteil LM 1 40 %", "result": 100, "unit": "%"}, {"measurement": "Wirkstoffwiederfindung nach 48 Wochen", "setting": "[2]; saturated solution in Propylenglycol monomethylether / Pyrrolidon, Anteil LM 1 60 %", "result": 100, "unit": "%"}, {"measurement": "Wirkstoffwiederfindung nach 48 Wochen", "setting": "[2]; saturated solution in Propylenglycol monomethylether / Pyrrolidon, Anteil LM 1 80 %", "result": 100, "unit": "%"}, {"measurement": "Wirkstoffwiederfindung nach 48 Wochen", "setting": "[2]; saturated solution in Pyrrolidon / Glycerinformal, Anteil LM 1 20 %", "result": 72, "unit": "%"}, {"measurement": "Wirkstoffwiederfindung nach 48 Wochen", "setting": "[2]; saturated solution in Tetraethylenglycol / Pyrrolidon, Anteil LM 1 40 %", "result": 87, "unit": "%"}, {"measurement": "Wirkstoffwiederfindung nach 48 Wochen", "setting": "[2]; saturated solution in Tetraethylenglycol / Pyrrolidon, Anteil LM 1 60 %", "result": 76, "unit": "%"}, {"measurement": "Wirksamkeit als Urease-Inhibitor", "setting": "[3]", "result": "mittlerer Wirkungsstärke; also recorded: nur mittlere Wirksamkeit"}]}]}
